System: NADH levels in ex vivo brain sample (cortex)
Experiment: continuous monitoring of NADH in an ex vivo brain sample by time-resolved fluorescence spectroscopy
Details: rabbit cortex ex vivo
Method: Changes in NADH level were assessed to determine changes in the metabolic status of the brain sample in response to oxygen depletion, stimulation with neuro-protective drugs, and other stimuli. During ATP production in aerobic respiration conditions, NADH is oxidized to NAD+. In low oxygen conditions, for example, in areas of hypoxia or ischemia after a stroke, NADH accumulates in cells and persistent oxygen depletion can lead to cell death and breakdown of NADH. The different NADH states and levels may allow for the assessment of the viability and vulnerability of cells in an ischemic environment. Fluctuations in NADH levels were evaluated by measuring the fluorescence emission from NADH […]. […]
The system comprised a Q-switched ND:YaG laser (Teem Photonics PNVM02510) 1804 running at 1 KHz which emitted laser pulse at a wavelength of about 350 nm and a pulse width of about 400 ps full width half maximum (FWHM). […] The probe 1800 comprised a central 600 um fiber 1805 to deliver the excitation light surrounded by twelve 200 um fibers to collect the responsive fluorescence signal. […] One bundle of collection fibers 1806a was coupled to a spectrometer (Ocean Optics, Maya) which monitored the fluorescence spectrum every 100 ms. […]

SMILES: C=C(C)[C@H]1Cc2c(ccc3c2O[C@@H]2COc4cc(OC)c(OC)cc4[C@@H]2C3=O)O1 [rotenone]
- NADH levels (free and bound NADH fluorescence) (50 nM rotenone added to Kreb-Ringer bath after about 30 minutes baseline): increased NADH levels
- NADH fluorescence detected (additional rotenone doses of 1 uM and 50 uM added at 10 minute intervals): further increases in fluorescence detected

— US10656089B2, “Systems, devices, and methods for time-resolved fluorescent spectroscopy” (Black Light Surgical, Inc., priority 2016, dated 2020)
